Assay results published in patent US4132738A, “Preparation of 15-deoxy-16-hydroxyprostaglandins” (Miles Laboratories, Inc., priority 1978, dated 1979).

Legend:
[1] = tested on: femoral blood flow in the anesthetized dog; assay: Effects on femoral blood flow in the anesthetized dog; assay type: in vivo; details: comparison in words
Method: The peripheral vasodilator or constrictor effects of test compounds were determined in mongrel dogs of either sex, weighing between 10 and 20 kg, anesthetized intravenously with 35 mg/kg of pentobarbital sodium. An external iliac artery was dissected immediately above the femoral arch for a length of approximately 5 cm, and a previously calibarated, non-cannulating electromagnetic-flowmeter sensor with a lumen between 2.5 and 3.5 mm was placed snugly around the vessel. Cannulas were placed in a branch of the artery arising distally to the location of the flowmeter sensor for intraarterial drug administrations, in the contralateral femoral artery for systemic blood pressure recording, and in the trachea for artificial respiration with room air. Femoral blood flow and systemic blood pressure were continuously recorded with an electromagnetic flowmeter and pressure transducer, respectively.
After an adequate control period, test compounds were injected intraarterially at one log-spaced doses ranging from 0.001 to 10 mcg, in a volume of 0.5 ml and at 5 to 10 minute intervals. […] The dose changing blood flow by 100 ml/min (ED100 ml/min) was calculated graphically and was used for scoring activity as follows: […]

[2] = tested on: gastric secretion in the rat; assay: Effects on gastric secretion in the rat; assay type: in vivo; details: comparison in words
Method: A procedure based on that described by Lipman, W. (J. Pharm. Pharmacol., 21: 335 [1968]) was used to assess the influence of test compounds on gastric secretion. Rats of one sex weighing 150 to 200 g were randomly divided into groups of six animals each and fasted for 48 hours previous to the experiments, water being available ad libitum. The animals were anesthetized with ether, the abdomen opened through a midline incision, and the pylorus ligated. Test compounds were diluted from stock solution so as to administer a dose of 1.5 mg/kg in a volume equivalent to 1 ml/kg. Subcutaneous injections were applied immediately after surgery and again 2 hours later, so that a total dose of 3.0 mg/kg was administered. Dilutions were made with phosphate buffer (pH 7.38) as recommended by Lee et al. (Prostaglandins, 3: 29 [1973]) in order to insure adequate stability of drugs at the subcutaneous depot. Each compound was tested in one group of rats; an additional control group received only the vehicle.
Four hours after pyllric ligation the animals were killed with ether, the cardias ligated, and the stomachs removed. The volume of gastric secretion was measured and the contents centrifuged at 5000 rpm for 10 minutes. Total acid in the supernatant was titrated against a 0.1 N sodium hydroxide solution and the amount expressed in mEq.
Volume and total acid values of the treated group were compared with those of the controls […]. Antisecretory activity was scored according to the following scale: […]

[3] = tested on: blood pressure in the hypertensive rat; assay: Effects on systolic blood pressure in the hypertensive rat; assay type: in vivo; parameters: key: 0: Not significant at any time interval; 1: Significant at one time interval; 2: Significant at two time intervals; details: 1 mg/kg intraperitoneal; 2, 4, 6 and 9 hours
Method: The acute anithypertensive activity of test compounds was determined in rats made hypertensive by the procedure of Grollman (Proc. Soc. Exper Biol. Med., 57: 102 [1944]). Female rats weighing between 60 and 100 g were anesthetized with ether, the right kidney approached through a flank retroperitoneal incision, decapsulated and tied with a figure-of-eight-ligature. The animals were left to recover and two weeks later were again anesthetized and the contralateral kidney removed. Four weeks after the second operation the rats were subjected to indirect blood pressure measurements and those showing systolic pressure values greater than 160 mmHg were selected for drug testing.
Blood pressure was measured in the tail with an inflatable occluding cuff placed at the base of the extremity and a pulse detector located distally. The cuff was inflated to approximately 300 mmHg and was slowly deflated until pulsations appeared, indicating the level of systolic pressure; diastolic pressure was not recorded by this procedure. All measurements were carried out in unanesthetized, unsedated animals maintained in a warm environment during the recording procedure and for at least 6 hours before. In all cases, three pressure readings were obtained in succession and mean values were calculated thereof.
Experiments were carried out in groups of five hypertensive rats in which systolic pressure was determined immediately before and 2, 4, 6 and 9 hours after intraperiotoneal administration of the test compound at a dose of 1 mg/kg. Drugs were diluted from stock solutions with phosphate buffer (Lee et. al., Prostaglandins, 29 [1973]), so as to inject this quantity in a volume of 1 ml/kg. Changes from control blood pressure values were calculated for each interval both in mmHg and in percent, and evaluated for significance by means of Wilcoxon's signed rank test (Wilcoxon, R. and Wilcox, R. A., "Some Rapid Approximate Statistical Procedures," Lederle Laboratories, Pearl River [1964]).

guinea pig trachea = assay: Effects on the guinea pig trachea in vitro; assay type: cell-based; details: comparison in words
Method: A male guinea pig weighing 200-500 g was killed by a blow on the head. A 20 mm length of the trachea was dissected from the animal, transferred to a petri dish containing Krebs' solution (aerated with 95% O2 and 5% CO2 at 37° C.), and cut longitudinally opposite the tracheal muscle. The tissue was then cut transversely three quarters of the distance across, a second cut in the opposite direction (again three quarters of the distance across the tissue) was made and the procedure was continued for the whole tissue. The ends of the trachea were pulled to form a zig-zig shaped strip. The tracheal strip used in the experiment was approximately 30 mm when extended under 0.25-0.5 g load in the tissue bath. Cotton thread was tied to one end of the tissue, and linen thread to the other. It was attached via the linen thread to a glass hook in a 5 ml isolated tissue bath containing Krebs' solution (37° C., aerated with a mixture of 95% O2 and 5% CO2). The opposite end was attached via cotton to an isotonic Harvard transducer (Model 386 Heart/Smooth Muscle Transducer, Harvard Apparatus). The load on the transducer lever was small, usually 0.3 g, with a range of 0.25-0.5 g, and the magnification high, 80 fold using an appropriate twin-channel pen recorder. A minimum of thirty minutes was allowed before applying a test compound to the tissue. Test compounds were then applied (in volumes of 0.5 ml) at thirty minute intervals, being in contact with the tissue for five minutes followed by an overflow washout time of twenty seconds.
Prostaglandin E1, at a bath concentration of 0.1 mcg/ml, was then tested repeatedly on two such strips, obtained from two different animals, until two responses (the values of which are recorded) differing by no more than 25% occur. A test compound was then added to the same two strips at bath concentrations of 0.01, 0.1, 1.0, and 10.0 mcg/ml and the effects of the compound were recorded. After the test compound had been evaluated at the highest concentration, PGE1 was retested at 0.1 mcg/ml (and the value of the response recorded) to insure that the viability of the strips was retained during the experiment. The mean of the effects of the test compound on the two strips was then calculated for each concentration, and, biased on the resulting values, an activity value was assigned as follows: […]

Row | Compound | Femoral blood flow value, methyl ester versus carbinol [1] | GAS value, carbinol versus methyl ester analogue [2] | Blood Pressure Hypertensive Rat: activity value [3] | Guinea pig trachea value, carbinol versus methyl ester analogue (guinea pig trachea)
1 | CCCCC(C)(O)C/C=C/[C@H]1[C@H](O)CC(=O)[C@@H]1CCCCCCC(=O)OC (stereo partly drawn) [TR 4704, Methyl 11α, 16RS-dihydroxy-16-methyl-9-oxoprost-13E-oate, reference compound] | significantly and undesirably higher | the same | 0 | the same
2 | CCCCC(O)C/C=C/[C@H]1[C@H](O)CC(=O)[C@@H]1CCCCCCC(=O)OC (stereo partly drawn) [TR 4705, Methyl 11α, 16RS-dihydroxy-9-oxoprost-13E-en-1-oate, reference compound] | slightly higher | the same | 0 | the same
